# Assay results taken from US20250214977A1, “STAT6 INHIBITORS AND USES THEREOF” (Kymera Therapeutics, Inc., priority 2024, published 2025).
# Values joined by “and” are separate entries in the source; they are usually repeats but may differ in a detail not shown here. Equal entries are not always repeated.
# Test system: Phosphorylation of STAT6 in human A549 cells
# Assay: Phosphorylated STAT6 (pSTAT6) flow cytometry assay in human A549 cells
# Type: cell-based
# Settings: read-out: STAT6 IL4 pSTAT6 assay in A549 cells: Average IC50
# Description: Example 3. Phosphorylated STAT6 (pSTAT6) Flow Cytometry Assay in Human A549 Cells
# Phosphorylation of STAT6 in human A549 cells was quantitatively measured using flow cytometry technology.
row,SMILES,IC50
1,COc1c(F)cccc1-c1cc(C2=CCCN(C(C)=O)C2)c(F)c2[nH]c(C(=O)N(C)C)cc12 [Example I-881],100 to 1000 nM
2,CN(C)C(=O)c1cc2cc(C3=CCCN(C(=O)C4Cc5c(N)cccc5CN4C=O)C3)ccc2o1 (centres unmarked) [Example I-372],100 to 1000 nM
3,COc1ccccc1-c1cc(C2=CCCN(C(=O)CCn3ccnn3)C2)c(F)c2[nH]c(C(=O)N3CCN(c4ccc(O)cc4)CC3)cc12 [Example I-867],< 100 nM
4,COc1cccnc1N1CCN(C(=O)c2cc3c(-c4ccc5ncccc5c4OC)cc(C4=CCCN(C(=O)CCn5ccnn5)C4)c(F)c3[nH]2)CC1 [Example I-577],< 100 nM
5,CCCOc1ncccc1-c1cc(C2=CCCN(C(=O)CCn3ccnn3)C2)c(F)c2[nH]c(C(=O)N3CCN(c4ncc(F)cc4OC)CC3)cc12 [Example I-652],< 100 nM
6,COc1cccnc1N1CCN(C(=O)c2cc3c(-c4cccc(Cl)c4OC)cc(C4=CCCN(C(=O)CCn5ccnn5)C4)c(F)c3[nH]2)CC1 [Example I-411],> 100000 nM
7,COc1ccccc1-c1cc(C2=CCCN(C(=O)CCn3ccnn3)C2)c(F)c2[nH]c(C(=O)N3CCN(c4ccccc4C)CC3)cc12 [Example I-421],< 100 nM
8,CCc1nc(C)ccc1-c1cc(C(=O)N2CCN(c3ncc(F)cc3OC)CC2)cc2cc(C3=CCCN(C(=O)CCn4ccnn4)C3)n(CC(C)C)c12 [Example I-524],< 100 nM
9,CCc1ccc(-c2cc(C(=O)N3Cc4cnn(CC)c4C3)cc3cc(C4=CCCN(C(=O)CC(=O)O)C4)n(CC(C)C)c23)c(C)n1 [Example I-801],> 100000 nM
10,COc1ccncc1-c1cc(C2=CCCN(C(=O)CCn3ccnn3)C2)c(F)c2[nH]c(C(=O)N3CCN(c4ccccc4OC)CC3)cc12 [Example I-565],< 100 nM
11,COc1cc(F)cnc1N1CCN(C(=O)c2cc3c(-c4cncc(OC(C)C)c4)cc(C4=CCCN(C(=O)CCn5ccnn5)C4)c(F)c3[nH]2)CC1 [Example I-655],< 100 nM
12,"CCc1cc(C)ncc1-c1cc(C2=CCCN(C(=O)C(C)C(=O)O)C2)c(F)c2[nH]c(C(=O)N3CCN(c4ncc(F)cc4OC)CC3)cc12 (centres unmarked) [Example I-808, 3-(3-(4-(4-ethyl-6-methylpyridin-3-yl)-7-fluoro-2-(4-(5-fluoro-3-methoxypyridin-2-yl)piperazine-1-carbonyl)-1H-indol-6-yl)-5,6-dihydropyridin-1(2H)-yl)-2-methyl-3-oxopropanoic acid]",100 to 1000 nM and < 100 nM
13,COc1cccc(N2CCN(C(=O)c3cc4c(-c5cc(F)cc(F)c5OC)cc(C5=CCCN(C(=O)CCn6ccnn6)C5)c(F)c4[nH]3)CC2)n1 [Example I-591],< 100 nM
14,COc1ccncc1-c1cc(C2=CCCN(C(C)=O)C2)c(F)c2[nH]c(C(=O)N3CCN(c4ncc(F)cc4OC)CC3)cc12 [Example I-696],> 100000 nM
15,CCc1cc(C)ncc1-c1cc(C2=CCCN(C(=O)CCn3cccn3)C2)c(F)c2[nH]c(C(=O)N3CCN(c4cc(C)ccc4OC)CC3)cc12 [Example I-515],< 100 nM
16,COc1cnccc1-c1cc(C2=CCCN(C(C)=O)C2)c(F)c2sc(C(=O)N(C)C)cc12 [Example I-554],100 to 1000 nM

row,SMILES,IC50
1,COc1cccc(N2CCN(C(=O)c3cc4c(-c5cc(F)c(F)cc5OC)cc(C5=CCCN(C(=O)CCn6ccnn6)C5)c(F)c4[nH]3)CC2)n1 [Example I-590],< 100 nM
2,COC(=O)CC(=O)N1CCC=C(c2cc3cc(C(=O)N4Cc5cnn(C)c5C4)cc(-c4cccnc4OC)c3n2CC2CC2)C1 [Example I-795],> 100000 nM
3,"COc1ccccc1-c1cc(C2=CCCN(C(=O)CCn3ccnn3)C2)c(F)c2[nH]c(C(=O)N3CCN(c4cc(C#N)ccc4OC)CC3)cc12 [Example I-356, 3-(4-(6-(1-(3-(1H-1,2,3-triazol-1-yl)propanoyl)-1,2,5,6-tetrahydropyridin-3-yl)-7-fluoro-4-(2-methoxyphenyl)-1H-indole-2-carbonyl)piperazin-1-yl)-4-methoxybenzonitrile]",< 100 nM
4,COc1cc(F)c(C)nc1N1CCN(C(=O)c2cc3c(-c4cnc(C)cc4C(C)C)cc(C4=CCCN(C(=O)CCn5ccnn5)C4)c(F)c3[nH]2)CC1 [Example I-740],< 100 nM
5,COc1cc(F)cnc1N1CCN(C(=O)c2cc3c(-c4cccnc4C4CC4)cc(C4=CCCN(C(=O)CCn5ccnn5)C4)c(F)c3[nH]2)CC1 [Example I-628],< 100 nM
6,CN(C)C(=O)c1cc2cc(C3=CCCN(C(=O)CCc4nncs4)C3)ccc2o1 [Example I-824],100 to 1000 nM
7,CN(C)C(=O)c1cc2cc(C3=CCCN(C(=O)CCn4ccnn4)C3)cnc2[nH]1 [Example I-819],100 to 1000 nM
8,COc1ccncc1-c1cc(C2=CCCN(C(=O)CCn3ccnn3)C2)c(F)c2[nH]c(C(=O)N3CC=C(c4ccc(F)c(OC)n4)CC3)cc12 [Example I-434],< 100 nM
9,COc1cccnc1N1CCN(C(=O)c2cc3c(-c4cccc5ccccc45)cc(C4=CCCN(C(=O)CCn5ccnn5)C4)c(F)c3[nH]2)CC1 [Example I-397],> 100000 nM
10,COc1ccccc1-c1cc(C2=CCCN(C(=O)CCn3ccnn3)C2)c(F)c2[nH]c(C(=O)N3CCN(c4ccc5c(c4)c4ccccc4n5C)CC3)cc12 [Example I-770],1000 to 10000 nM
11,COc1ccncc1-c1cc(C2=CCCN(C(=O)CCn3ccnn3)C2)c(F)c2[nH]c(C(=O)N3CCN(c4ccc(F)c(OC)c4F)CC3)cc12 [Example I-492],> 100000 nM
12,CN(C)C(=O)c1cc2ccc(C3=CCCN(C(=O)CCn4cccn4)C3)cc2[nH]1 [Example I-826],100 to 1000 nM
13,COc1ccccc1-c1cc(C2=CCCN(C(=O)CCn3ccnn3)C2)c(F)c2[nH]c(C(=O)N3CCN(c4c(F)cc(F)cc4OC)CC3)cc12 [Example I-432],< 100 nM
14,COc1cc(F)cnc1N1CCN(C(=O)c2cc3c(-c4cnc5c(C)cccc5c4)cc(C4=CCCN(C(=O)CCn5ccnn5)C4)c(F)c3[nH]2)CC1 [Example I-672],< 100 nM
15,COC(=O)c1ccc(OC)c(N2CCN(C(=O)c3cc4c(-c5ccccc5OC)cc(C5=CCCN(C(=O)CCn6ccnn6)C5)c(F)c4[nH]3)CC2)n1 [Example I-360],< 100 nM

# Further lines, results first:
row,IC50,SMILES
1,< 100 nM,CN(C)C(=O)c1cc2cc(C3=CCCN(C(=O)CCn4ccnn4)C3)cc(-c3ccc(F)cc3O)c2o1 [Example I-1074]
2,< 100 nM,CCc1ccncc1-c1cc(C2=CCCN(C(=O)CCn3ccnn3)C2)c(F)c2[nH]c(C(=O)N3CCN(c4ncc(C(F)(F)F)cc4OC)CC3)cc12 [Example I-1040]
3,1000 to 10000 nM,"CNc1ccc(-c2cc([C@@H]3CCCN(C(=O)CCn4ccnn4)C3)cc3[nH]c(C(=O)N(C)C)cc23)c(OC)c1 (single isomer, unassigned) [Example I-1191]"
4,< 100 nM,COc1cc(F)cnc1N1CCN(C(=O)c2cc3c(C4=CCN(C5CC5)CC4)cc(C4=CCCN(C(=O)CCn5ccnn5)C4)c(F)c3[nH]2)CC1 [Example I-1131]
5,< 100 nM,CNc1ccc(-c2cc(C3=CCCN(C(C)=O)C3)c(F)c3[nH]c(C(=O)N(C)C)cc23)c(OC)c1 [Example I-1092]
6,< 100 nM,CN(C)C(=O)c1cc2cc(C3=CCCN(C(=O)CCn4ccnn4)C3)cc(-c3ccc(C(F)(F)F)cc3O)c2o1 [Example I-1073]
7,100 to 1000 nM,COc1cccnc1N1CCN(C(=O)c2cc3c(-c4cccc(F)c4OC)cc(C4=CCCN(C(=O)CCn5ccnn5)C4)c(F)c3[nH]2)C(C)C1 (centres unmarked) [Example I-973]
8,100 to 1000 nM,COc1ccccc1-c1cc(C2=CCCN(C(=O)CCn3ccnn3)C2)c(F)c2[nH]c(C(=O)N3CCC(C)(O)C3)cc12 (centres unmarked) [Example I-1006]
9,< 100 nM,Cc1c[nH]c2ncc(-c3cc(C4=CCCN(C(=O)CCn5ccnn5)C4)cc4cc(C(=O)N(C)C)oc34)cc12 [Example I-1085]
10,< 100 nM,CCOc1ccncc1-c1cc(C2=CCCN(C(=O)CCn3ccnn3)C2)c(F)c2[nH]c(C(=O)N3CCN(c4cnc(C)nc4OC)CC3)cc12 [Example I-1036]
11,< 100 nM,CN(C)C(=O)c1cc2cc(C3=CCCN(C(=O)CCn4ccnn4)C3)cc(-c3ccc4[nH]ccc4c3)c2o1 [Example I-1071]
12,< 100 nM,COc1ccccc1-c1cc(C2=CCCN(C(=O)CCn3ccnn3)C2)c(F)c2[nH]c(C(=O)N3CCN(c4cn(C)c5ncncc45)CC3)cc12 [Example I-1016]
13,100 to 1000 nM,COc1ccccc1-c1cc(C2=CCCN(C(=O)CCn3ccnn3)C2)c(F)c2[nH]c(C(=O)N3CCN(c4ccccc4C(F)(F)F)CC3)cc12 [Example I-968]
14,< 100 nM,COc1cc(F)cnc1N1CCN(C(=O)c2cc3c(-c4cccc(CN5CCOCC5)c4)cc(C4=CCCN(C(=O)CCn5ccnn5)C4)c(F)c3[nH]2)CC1 [Example I-1154]
15,< 100 nM,COc1ccccc1-c1cc(C2=CCCN(C(=O)CCn3ccnn3)C2)c(F)c2[nH]c(C(=O)N3CCN(c4ccc(C#N)cc4F)CC3)cc12 [Example I-1009]
16,< 100 nM,COc1ccccc1-c1cc(C2=CCCN(C(=O)CCn3ccnn3)C2)c(F)c2[nH]c(C(=O)N3CCN(c4cnc5nccnc5c4C)CC3)cc12 [Example I-944]
17,> 100000 nM,CNc1ccc(-c2cc(C3=CCCN(C(=O)CCn4ccnn4)C3)cc3[nH]c(C(=O)N(C)C)cc23)c(OC)c1 [Example I-1051]
18,< 100 nM,COc1cc(F)cnc1N1CCN(C(=O)c2cc3c(C4=CCCC4)cc(C4=CCCN(C(=O)CCn5ccnn5)C4)c(F)c3[nH]2)CC1 [Example I-1134]
19,100 to 1000 nM,COc1cc(F)cnc1N1CCN(C(=O)c2cc3c(-c4ccc(OCC5CC5)nc4)cc(C4=CCCN(C(=O)CCn5ccnn5)C4)c(F)c3[nH]2)CC1 [Example I-1164]
20,< 100 nM,CN(C)C(=O)c1cc2cc(C3=CCCN(C(=O)CCn4ccnn4)C3)cc(NCc3ccc(C(F)(F)F)nc3)c2o1 [Example I-893]
21,100 to 1000 nM,COc1ccccc1-c1cc(C2=CCCN(C(=O)CCn3ccnn3)C2)c(F)c2[nH]c(C(=O)N3CCN(c4cc(C)c(O)c(C)c4)CC3)cc12 [Example I-1032]
22,< 100 nM,COc1ccccc1-c1cc(C2=CCCN(C(=O)CCn3ccnn3)C2)c(F)c2[nH]c(C(=O)N3CCN(c4nccc5[nH]ccc45)CC3)cc12 [Example I-966]
